In article PMC5428509, “Irreversible inhibition of BTK kinase by a novel highly selective inhibitor CHMFL-BTK-11 suppresses inflammatory response in rheumatoid arthritis model” (Scientific Reports, 2017):

Legend:
Test in all cases: biochemical
Parameters in all cases: KinomeScan competition binding panel (DiscoveRx), percent of control at 1 uM
Conditions in all cases: read-out: Percent Control
[1] = molecular target: T1, DCAMKL1 (Homo sapiens, UniProt O15075)
T1 construct: gene DCLK1
Method in brief: (§1)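 Selectivity profiled across 456 kinases/mutants by KinomeScan binding technology.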

[2] = molecular target: CAMK1D (Homo sapiens, UniProt Q8IU85)
Method in brief: as §1

[3] = molecular target: T2, RPS6KA4(Kin.Dom.2-C-terminal) (Homo sapiens, UniProt O75676)
T2 construct: Kin.Dom.2-C-terminal
Method in brief: as §1

[4] = molecular target: HIPK4 (Homo sapiens, UniProt Q8NE63)
Method in brief: as §1

[5] = molecular target: T3, BRK (Homo sapiens, UniProt Q13882)
T3 construct: gene PTK6
Method in brief: as §1

[6] = molecular target: T4, RSK1(Kin.Dom.1-N-terminal) (Homo sapiens, UniProt Q15418)
T4 construct: gene RPS6KA1; Kin.Dom.1-N-terminal
Method in brief: as §1

[7] = molecular target: PKN1 (Homo sapiens, UniProt Q16512)
Method in brief: as §1

[8] = molecular target: HCK (Homo sapiens, UniProt P08631)
Method in brief: as §1

[9] = molecular target: T5, PFTAIRE2 (Homo sapiens, UniProt Q96Q40)
T5 construct: gene CDK15
Method in brief: as §1

[10] = molecular target: T6, DRAK1 (Homo sapiens, UniProt Q9UEE5)
T6 construct: gene STK17A
Method in brief: as §1

[11] = molecular target: T7, ABL1(F317L)-phosphorylated (Homo sapiens, UniProt P00519, F317L)
T7 construct: phosphorylated
Method in brief: as §1

[12] = molecular target: DAPK1 (Homo sapiens, UniProt P53355)
Method in brief: as §1

[13] = molecular target: KIT(D816V) (Homo sapiens, UniProt P10721, D816V)
Method in brief: as §1

[14] = molecular target: CDK5 (Homo sapiens, UniProt Q00535)
Method in brief: as §1

[15] = molecular target: GAK (Homo sapiens, UniProt O14976)
Method in brief: as §1

[16] = molecular target: PIK3CA(C420R) (Homo sapiens, UniProt P42336, C420R)
Method in brief: as §1

[17] = molecular target: T8, MLK3 (Homo sapiens, UniProt Q16584)
T8 construct: gene MAP3K11
Method in brief: as §1

[18] = molecular target: T9, SgK110 (Homo sapiens, UniProt P0C264)
T9 construct: gene SBK3
Method in brief: as §1

[19] = molecular target: PIK3CA(E545A) (Homo sapiens, UniProt P42336, E545A)
Method in brief: as §1

[20] = molecular target: CLK3 (Homo sapiens, UniProt P49761)
Method in brief: as §1

[21] = molecular target: FLT3(N841I) (Homo sapiens, UniProt P36888, N841I)
Method in brief: as §1

[22] = molecular target: PRKCQ (Homo sapiens, UniProt Q04759)
Method in brief: as §1

[23] = molecular target: SGK3 (Homo sapiens, UniProt Q96BR1)
Method in brief: as §1

[24] = molecular target: BLK (Homo sapiens, UniProt P51451)
Method in brief: as §1

T6 sequence (Q9UEE5 whole entry): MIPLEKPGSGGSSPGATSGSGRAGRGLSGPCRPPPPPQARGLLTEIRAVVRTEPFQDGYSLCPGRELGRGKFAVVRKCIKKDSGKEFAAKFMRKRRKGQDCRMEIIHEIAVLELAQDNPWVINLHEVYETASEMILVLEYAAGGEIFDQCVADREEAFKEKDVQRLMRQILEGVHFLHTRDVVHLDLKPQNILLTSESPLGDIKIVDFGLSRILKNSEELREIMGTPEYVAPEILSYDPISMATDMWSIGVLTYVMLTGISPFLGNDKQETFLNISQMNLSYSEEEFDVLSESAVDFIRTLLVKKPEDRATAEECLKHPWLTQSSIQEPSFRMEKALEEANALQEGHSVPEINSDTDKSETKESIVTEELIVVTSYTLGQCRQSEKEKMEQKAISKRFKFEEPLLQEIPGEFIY
Sequence of CAMK1D (Q8IU85 whole entry): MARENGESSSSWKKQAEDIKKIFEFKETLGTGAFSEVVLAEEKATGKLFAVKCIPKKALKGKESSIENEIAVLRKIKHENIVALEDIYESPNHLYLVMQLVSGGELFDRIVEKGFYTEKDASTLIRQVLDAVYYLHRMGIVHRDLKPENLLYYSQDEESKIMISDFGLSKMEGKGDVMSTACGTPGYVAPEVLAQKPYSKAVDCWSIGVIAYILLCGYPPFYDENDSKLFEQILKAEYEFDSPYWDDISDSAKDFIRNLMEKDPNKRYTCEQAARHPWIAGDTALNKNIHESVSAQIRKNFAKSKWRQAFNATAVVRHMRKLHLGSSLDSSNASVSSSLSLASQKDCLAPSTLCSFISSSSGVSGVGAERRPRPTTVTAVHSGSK
Sequence of HCK (P08631 whole entry): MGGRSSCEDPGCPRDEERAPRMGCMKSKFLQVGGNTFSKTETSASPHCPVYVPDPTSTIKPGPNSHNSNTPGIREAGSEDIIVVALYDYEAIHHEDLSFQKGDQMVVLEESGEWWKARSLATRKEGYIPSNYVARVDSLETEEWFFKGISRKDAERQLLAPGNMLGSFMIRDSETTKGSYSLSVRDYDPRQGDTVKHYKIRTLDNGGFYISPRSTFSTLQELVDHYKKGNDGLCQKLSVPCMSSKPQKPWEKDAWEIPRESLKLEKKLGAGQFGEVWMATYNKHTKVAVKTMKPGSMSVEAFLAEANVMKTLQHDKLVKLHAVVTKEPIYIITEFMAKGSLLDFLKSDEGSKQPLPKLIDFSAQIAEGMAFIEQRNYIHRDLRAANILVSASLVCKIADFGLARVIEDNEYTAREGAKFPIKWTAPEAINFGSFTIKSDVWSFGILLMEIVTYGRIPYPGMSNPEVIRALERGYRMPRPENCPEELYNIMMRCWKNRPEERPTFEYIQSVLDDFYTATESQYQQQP
Sequence of CLK3 (P49761 whole entry): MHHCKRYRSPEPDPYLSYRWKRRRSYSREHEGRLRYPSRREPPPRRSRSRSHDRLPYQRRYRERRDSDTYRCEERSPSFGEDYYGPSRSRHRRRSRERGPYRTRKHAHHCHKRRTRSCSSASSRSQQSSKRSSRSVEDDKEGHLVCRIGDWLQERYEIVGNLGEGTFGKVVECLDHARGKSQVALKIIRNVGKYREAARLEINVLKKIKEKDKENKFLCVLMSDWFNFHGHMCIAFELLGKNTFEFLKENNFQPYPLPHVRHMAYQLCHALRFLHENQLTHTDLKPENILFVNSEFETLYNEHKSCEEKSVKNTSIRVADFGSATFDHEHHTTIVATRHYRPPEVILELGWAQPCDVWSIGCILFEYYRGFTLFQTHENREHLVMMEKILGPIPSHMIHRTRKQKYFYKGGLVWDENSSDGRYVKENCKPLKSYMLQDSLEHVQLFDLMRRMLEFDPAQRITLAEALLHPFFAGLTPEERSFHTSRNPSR
Sequence of GAK (O14976 whole entry): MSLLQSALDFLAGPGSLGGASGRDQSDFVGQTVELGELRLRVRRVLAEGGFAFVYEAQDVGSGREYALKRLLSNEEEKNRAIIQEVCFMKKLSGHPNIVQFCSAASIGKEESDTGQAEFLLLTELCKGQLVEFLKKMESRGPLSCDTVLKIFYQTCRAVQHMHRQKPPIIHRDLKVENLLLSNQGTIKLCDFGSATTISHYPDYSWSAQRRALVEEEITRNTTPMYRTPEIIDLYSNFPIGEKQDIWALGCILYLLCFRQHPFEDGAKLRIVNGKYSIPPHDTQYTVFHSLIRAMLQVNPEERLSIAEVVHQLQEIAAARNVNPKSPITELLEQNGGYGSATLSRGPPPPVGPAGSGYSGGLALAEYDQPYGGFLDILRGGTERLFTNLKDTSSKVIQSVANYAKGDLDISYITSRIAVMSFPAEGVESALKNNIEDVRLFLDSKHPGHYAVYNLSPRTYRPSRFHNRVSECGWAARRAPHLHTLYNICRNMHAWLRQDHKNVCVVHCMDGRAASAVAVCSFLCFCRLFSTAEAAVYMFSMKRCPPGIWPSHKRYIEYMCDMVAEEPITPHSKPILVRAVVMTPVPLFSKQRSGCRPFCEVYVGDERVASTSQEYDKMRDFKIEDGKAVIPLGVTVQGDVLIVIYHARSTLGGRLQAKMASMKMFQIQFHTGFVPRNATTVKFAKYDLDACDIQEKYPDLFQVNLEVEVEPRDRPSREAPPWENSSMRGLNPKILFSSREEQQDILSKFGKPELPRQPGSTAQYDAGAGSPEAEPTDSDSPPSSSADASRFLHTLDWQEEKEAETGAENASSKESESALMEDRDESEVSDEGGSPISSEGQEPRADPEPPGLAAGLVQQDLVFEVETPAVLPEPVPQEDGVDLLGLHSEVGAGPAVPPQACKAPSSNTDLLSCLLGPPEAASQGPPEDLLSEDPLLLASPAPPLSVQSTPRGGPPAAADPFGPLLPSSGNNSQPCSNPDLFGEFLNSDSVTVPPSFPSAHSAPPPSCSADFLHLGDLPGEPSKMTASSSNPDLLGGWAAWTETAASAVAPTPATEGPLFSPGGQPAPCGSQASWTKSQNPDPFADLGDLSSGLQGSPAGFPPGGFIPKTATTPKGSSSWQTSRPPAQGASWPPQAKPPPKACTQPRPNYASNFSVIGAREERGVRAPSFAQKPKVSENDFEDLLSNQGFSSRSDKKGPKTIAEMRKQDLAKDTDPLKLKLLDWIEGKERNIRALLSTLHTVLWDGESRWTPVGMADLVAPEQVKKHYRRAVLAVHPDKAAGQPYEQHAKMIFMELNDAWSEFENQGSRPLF
Sequence of BLK (P51451 whole entry): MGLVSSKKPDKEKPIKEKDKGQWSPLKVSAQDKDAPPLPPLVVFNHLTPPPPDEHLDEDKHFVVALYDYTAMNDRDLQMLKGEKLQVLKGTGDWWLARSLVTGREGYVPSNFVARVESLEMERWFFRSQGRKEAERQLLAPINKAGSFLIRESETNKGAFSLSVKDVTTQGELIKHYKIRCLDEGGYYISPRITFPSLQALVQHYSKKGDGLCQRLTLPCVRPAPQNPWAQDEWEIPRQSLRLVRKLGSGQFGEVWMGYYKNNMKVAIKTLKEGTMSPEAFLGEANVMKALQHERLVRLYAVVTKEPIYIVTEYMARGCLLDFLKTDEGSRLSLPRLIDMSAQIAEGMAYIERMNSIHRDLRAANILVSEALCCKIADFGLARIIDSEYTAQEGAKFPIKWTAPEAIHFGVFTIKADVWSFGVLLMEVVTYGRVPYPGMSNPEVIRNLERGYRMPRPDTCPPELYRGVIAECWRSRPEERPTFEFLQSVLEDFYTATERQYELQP
Sequence of PKN1 (Q16512 whole entry): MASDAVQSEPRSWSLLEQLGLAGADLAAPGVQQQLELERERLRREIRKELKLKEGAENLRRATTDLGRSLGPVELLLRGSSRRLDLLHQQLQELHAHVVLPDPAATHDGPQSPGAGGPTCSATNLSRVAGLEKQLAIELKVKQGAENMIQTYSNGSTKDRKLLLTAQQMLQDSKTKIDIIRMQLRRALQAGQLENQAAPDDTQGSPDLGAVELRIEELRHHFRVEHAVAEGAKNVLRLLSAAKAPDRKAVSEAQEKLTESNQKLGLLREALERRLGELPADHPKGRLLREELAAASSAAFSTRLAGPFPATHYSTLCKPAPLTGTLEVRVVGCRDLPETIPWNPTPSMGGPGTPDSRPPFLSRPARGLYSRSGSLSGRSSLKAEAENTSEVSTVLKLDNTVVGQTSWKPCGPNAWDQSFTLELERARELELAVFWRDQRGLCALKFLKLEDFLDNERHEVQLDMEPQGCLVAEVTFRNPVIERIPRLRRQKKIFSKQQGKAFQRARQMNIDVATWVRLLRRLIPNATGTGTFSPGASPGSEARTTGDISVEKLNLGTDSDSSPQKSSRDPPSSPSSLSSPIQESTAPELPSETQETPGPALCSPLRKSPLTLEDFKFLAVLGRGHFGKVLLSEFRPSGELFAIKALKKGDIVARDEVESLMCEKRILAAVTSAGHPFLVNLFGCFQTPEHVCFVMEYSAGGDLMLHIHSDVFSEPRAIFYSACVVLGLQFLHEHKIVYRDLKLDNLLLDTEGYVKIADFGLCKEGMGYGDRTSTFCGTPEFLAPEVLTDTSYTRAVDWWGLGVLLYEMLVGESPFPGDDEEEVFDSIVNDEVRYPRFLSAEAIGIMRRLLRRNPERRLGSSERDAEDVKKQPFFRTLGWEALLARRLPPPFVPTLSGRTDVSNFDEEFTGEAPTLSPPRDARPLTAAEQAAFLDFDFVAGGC
T9 sequence (P0C264 whole entry): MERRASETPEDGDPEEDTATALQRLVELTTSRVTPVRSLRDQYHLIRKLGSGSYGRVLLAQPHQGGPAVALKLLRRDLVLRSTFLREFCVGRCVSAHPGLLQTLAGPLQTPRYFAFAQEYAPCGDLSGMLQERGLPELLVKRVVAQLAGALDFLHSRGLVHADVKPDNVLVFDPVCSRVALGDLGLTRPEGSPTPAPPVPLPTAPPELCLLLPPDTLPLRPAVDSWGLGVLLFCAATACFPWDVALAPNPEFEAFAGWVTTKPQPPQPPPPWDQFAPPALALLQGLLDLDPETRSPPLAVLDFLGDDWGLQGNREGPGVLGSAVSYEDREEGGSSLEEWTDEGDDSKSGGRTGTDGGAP

C=CC(=O)Nc1cc(-n2c(=O)ccc3cnc4ccc(-n5cccn5)cc4c32)ccc1C [CHMFL-BTK-11]
remaining binding at 1 µM [1]: 91%
remaining binding at 1 µM [2]: 100%
remaining binding at 1 µM [3]: 100%
remaining binding at 1 µM [4]: 94%
remaining binding at 1 µM [5]: 100%
remaining binding at 1 µM [6]: 82%
remaining binding at 1 µM [7]: 100%
remaining binding at 1 µM [8]: 100%
remaining binding at 1 µM [9]: 100%
remaining binding at 1 µM [10]: 96%
remaining binding at 1 µM [11]: 100%
remaining binding at 1 µM [12]: 100%
remaining binding at 1 µM [13]: 97%
remaining binding at 1 µM [14]: 100%
remaining binding at 1 µM [15]: 100%
remaining binding at 1 µM [16]: 74%
remaining binding at 1 µM [17]: 100%
remaining binding at 1 µM [18]: 90%
remaining binding at 1 µM [19]: 76%
remaining binding at 1 µM [20]: 100%
remaining binding at 1 µM [21]: 100%
remaining binding at 1 µM [22]: 100%
remaining binding at 1 µM [23]: 86%
remaining binding at 1 µM [24]: 30%
